Measurements: PubChem BioAssay (NCI)
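How tested: cells in 96-well plates exposed to compound for 48 hours at five concentrations. TGI: concentration producing complete growth inhibition.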

Columns and labels:
Assay in all cases: NCI anticancer screen, dose series, 48 h
RXF 393 renal = test system: RXF 393 renal
MOLT-4 leukemia = test system: MOLT-4 leukemia
HCT-15 colon = test system: HCT-15 colon
UACC-257 melanoma = test system: UACC-257 melanoma
PC-3 prostate = test system: PC-3 prostate
IGROV1 ovarian = test system: IGROV1 ovarian
SK-MEL-5 melanoma = test system: SK-MEL-5 melanoma
HT29 colon = test system: HT29 colon
SF-295 CNS = test system: SF-295 CNS
NCI-H522 lung = test system: NCI-H522 lung
SF-268 CNS = test system: SF-268 CNS
ACHN renal = test system: ACHN renal
SNB-19 CNS = test system: SNB-19 CNS
NCI/ADR-RES ovarian = test system: NCI/ADR-RES ovarian
LOX IMVI melanoma = test system: LOX IMVI melanoma
COLO 205 colon = test system: COLO 205 colon
A549 NSCLC = test system: A549 NSCLC
NCI-H23 lung = test system: NCI-H23 lung
SK-MEL-28 melanoma = test system: SK-MEL-28 melanoma
HL-60(TB) leukemia = test system: HL-60(TB) leukemia
K-562 leukemia = test system: K-562 leukemia
HOP-62 NSCLC = test system: HOP-62 NSCLC
EKVX NSCLC = test system: EKVX NSCLC
MDA-MB-231 breast = test system: MDA-MB-231 breast
SNB-75 CNS = test system: SNB-75 CNS
MDA-MB-435 = test system: MDA-MB-435
NCI-H460 lung = test system: NCI-H460 lung
DU-145 prostate = test system: DU-145 prostate
MALME-3M melanoma = test system: MALME-3M melanoma
M14 melanoma = test system: M14 melanoma
SN12C renal = test system: SN12C renal
786-0 renal = test system: 786-0 renal
UO-31 renal = test system: UO-31 renal
T-47D breast = test system: T-47D breast
BT-549 breast = test system: BT-549 breast
KM12 colon = test system: KM12 colon
RPMI-8226 leukemia = test system: RPMI-8226 leukemia
UACC-62 melanoma = test system: UACC-62 melanoma
OVCAR-3 ovarian = test system: OVCAR-3 ovarian
TK-10 renal = test system: TK-10 renal
SK-OV-3 ovarian = test system: SK-OV-3 ovarian
MDA-N = test system: MDA-N
U251 CNS = test system: U251 CNS
OVCAR-8 ovarian = test system: OVCAR-8 ovarian
OVCAR-5 ovarian = test system: OVCAR-5 ovarian
NCI-H226 lung = test system: NCI-H226 lung
SR leukemia = test system: SR leukemia
HCT-116 colon = test system: HCT-116 colon
HS 578T breast = test system: HS 578T breast
OVCAR-4 ovarian = test system: OVCAR-4 ovarian
MCF7 breast = test system: MCF7 breast
CCRF-CEM leukemia = test system: CCRF-CEM leukemia
CAKI-1 renal = test system: CAKI-1 renal
SW-620 colon = test system: SW-620 colon
SK-MEL-2 melanoma = test system: SK-MEL-2 melanoma
HOP-92 NSCLC = test system: HOP-92 NSCLC
SF-539 CNS = test system: SF-539 CNS
HCC-2998 colon = test system: HCC-2998 colon

`S=C1CSc2c(ccc3ccccc23)N1` was tested, and the TGI (RXF 393 renal) was greater than 100 µM, the TGI (MOLT-4 leukemia) was greater than 100 µM and the TGI (HCT-15 colon) was greater than 100 µM. It also gave a TGI (UACC-257 melanoma) greater than 100 µM, a TGI (PC-3 prostate) greater than 100 µM and a TGI (IGROV1 ovarian) greater than 100 µM. It also gave a TGI (SK-MEL-5 melanoma) greater than 100 µM, a TGI (HT29 colon) greater than 100 µM and a TGI (SF-295 CNS) greater than 100 µM. The TGI (NCI-H522 lung) was greater than 100 µM, the TGI (SF-268 CNS) was greater than 100 µM and the TGI (ACHN renal) was greater than 100 µM. The TGI (SNB-19 CNS) was greater than 100 µM, the TGI (NCI/ADR-RES ovarian) was greater than 100 µM and the TGI (LOX IMVI melanoma) was greater than 100 µM. It also gave a TGI (COLO 205 colon) greater than 100 µM, a TGI (A549 NSCLC) greater than 100 µM and a TGI (NCI-H23 lung) greater than 100 µM. For the same compound, the TGI (SK-MEL-28 melanoma) was greater than 100 µM, the TGI (HL-60(TB) leukemia) was greater than 100 µM and the TGI (K-562 leukemia) was greater than 100 µM. For the same compound, the TGI (HOP-62 NSCLC) was greater than 100 µM, the TGI (EKVX NSCLC) was greater than 100 µM and the TGI (MDA-MB-231 breast) was greater than 100 µM. It also gave a TGI (SNB-75 CNS) greater than 100 µM, a TGI (MDA-MB-435) greater than 100 µM and a TGI (NCI-H460 lung) greater than 100 µM. The TGI (DU-145 prostate) was greater than 100 µM, the TGI (MALME-3M melanoma) was greater than 100 µM and the TGI (M14 melanoma) was greater than 100 µM. It also gave a TGI (SN12C renal) greater than 100 µM, a TGI (786-0 renal) greater than 100 µM and a TGI (UO-31 renal) greater than 100 µM. It also gave a TGI (T-47D breast) greater than 100 µM, a TGI (BT-549 breast) greater than 100 µM and a TGI (KM12 colon) greater than 100 µM. It also gave a TGI (RPMI-8226 leukemia) greater than 100 µM, a TGI (UACC-62 melanoma) greater than 100 µM and a TGI (OVCAR-3 ovarian) greater than 100 µM. It also gave a TGI (TK-10 renal) greater than 100 µM, a TGI (SK-OV-3 ovarian) greater than 100 µM and a TGI (MDA-N) greater than 100 µM. It also gave a TGI (U251 CNS) greater than 100 µM, a TGI (OVCAR-8 ovarian) greater than 100 µM and a TGI (OVCAR-5 ovarian) greater than 100 µM. For the same compound, the TGI (NCI-H226 lung) was greater than 100 µM, the TGI (SR leukemia) was greater than 100 µM and the TGI (HCT-116 colon) was greater than 100 µM. For the same compound, the TGI (HS 578T breast) was greater than 100 µM, the TGI (OVCAR-4 ovarian) was greater than 100 µM and the TGI (MCF7 breast) was greater than 100 µM. For the same compound, the TGI (CCRF-CEM leukemia) was greater than 100 µM and the TGI (CAKI-1 renal) was greater than 100 µM.

Work on `CC(C)c1c(O)ccc2c1CCC1C(C)(C)CCCC21C` (stereo not given) yielded a TGI (RXF 393 renal) of 29.3 µM, a TGI (MOLT-4 leukemia) of 43.3 µM and a TGI (SW-620 colon) of 40.1 µM. The TGI (HCT-15 colon) was 34.3 µM, the TGI (SK-MEL-2 melanoma) was 31.9 µM and the TGI (UACC-257 melanoma) was 32.2 µM. The TGI (PC-3 prostate) was 31.4 µM, the TGI (IGROV1 ovarian) was 30 µM and the TGI (SK-MEL-5 melanoma) was 29.9 µM. For the same compound, the TGI (HT29 colon) was 32.1 µM, the TGI (SF-295 CNS) was 32.5 µM and the TGI (NCI-H522 lung) was 34.6 µM. The TGI (SF-268 CNS) was 35.5 µM, the TGI (ACHN renal) was 30.8 µM and the TGI (SNB-19 CNS) was 32.3 µM. It also gave a TGI (NCI/ADR-RES ovarian) of 31.2 µM, a TGI (LOX IMVI melanoma) of 31.1 µM and a TGI (COLO 205 colon) of 32 µM. For the same compound, the TGI (A549 NSCLC) was 31.9 µM, the TGI (NCI-H23 lung) was 31.8 µM and the TGI (HOP-92 NSCLC) was 32.8 µM. The TGI (SK-MEL-28 melanoma) was 38.1 µM, the TGI (HL-60(TB) leukemia) was 52.3 µM and the TGI (K-562 leukemia) was 50 µM. The TGI (EKVX NSCLC) was 31.7 µM, the TGI (MDA-MB-231 breast) was 36.5 µM and the TGI (SNB-75 CNS) was 33.1 µM. For the same compound, the TGI (MDA-MB-435) was 38.5 µM, the TGI (NCI-H460 lung) was 31.7 µM and the TGI (DU-145 prostate) was 28.3 µM. For the same compound, the TGI (MALME-3M melanoma) was 35.6 µM, the TGI (M14 melanoma) was 30.2 µM and the TGI (SN12C renal) was 27.8 µM. The TGI (786-0 renal) was 32.2 µM, the TGI (UO-31 renal) was 31.4 µM and the TGI (T-47D breast) was 5.75 µM. The TGI (BT-549 breast) was 32.8 µM, the TGI (KM12 colon) was 42.7 µM and the TGI (RPMI-8226 leukemia) was 49.3 µM. It also gave a TGI (SF-539 CNS) of 34 µM, a TGI (UACC-62 melanoma) of 28.9 µM and a TGI (HCC-2998 colon) of 37.2 µM. It also gave a TGI (OVCAR-3 ovarian) of 34.1 µM, a TGI (TK-10 renal) of 35.8 µM and a TGI (SK-OV-3 ovarian) of 33.4 µM. The TGI (MDA-N) was 32.3 µM, the TGI (U251 CNS) was 33.2 µM and the TGI (OVCAR-8 ovarian) was 31.7 µM. It also gave a TGI (OVCAR-5 ovarian) of 28.1 µM, a TGI (NCI-H226 lung) of 33.6 µM and a TGI (SR leukemia) of 40.5 µM. The TGI (HCT-116 colon) was 31 µM, the TGI (HS 578T breast) was 57.2 µM and the TGI (OVCAR-4 ovarian) was 32.9 µM. It also gave a TGI (MCF7 breast) of 35.3 µM, a TGI (CCRF-CEM leukemia) of 49.3 µM and a TGI (CAKI-1 renal) of 31.7 µM.
